Values quoted from earlier work in publication PMC3035168 (Chemistry & biology, 2010).
Residues, ends and D or L forms follow the SMILES beside them. *: point of attachment. Cbz = O=C(OCc1ccccc1)*; CH2F = FC*

Tests used:
[1] = mouse, in vivo
[2] = test system: HD transgenic mouse models; conditions: ref Chen et al., 2000
striatal neurons = conditions: ref Schulz et al., 1998

For C[C@H](NC(=O)C(=O)Nc1ccccc1C(C)(C)C)C(=O)N[C@@H](CC(=O)O)C(=O)COc1c(F)c(F)cc(F)c1F [IDN-6556], the toxicity [1] is listed as “nontoxic”.

In the case of CN(C)c1ccc(O)c2c1C[C@H]1C[C@H]3[C@H](N(C)C)C(O)=C(C(N)=O)C(=O)[C@@]3(O)C(O)=C1C2=O [minocycline], the “effect on cell death” value ([2]; HD transgenic mouse models) is listed as “delays cell death” and the “effect on caspase-1 and caspase-3 transcription” value ([2]; through indirect means) is listed as “inhibits caspase-1 and caspase-3 transcriptional upregulation”.

In the case of COC(=O)C[C@H](NC(=O)[C@H](C)NC(=O)[C@@H](NC(=O)OCc1ccccc1)C(C)C)C(=O)CF [zVAD-fmk] (Cbz-Val-Ala-Asp(OMe)-CH2F), the “protection against malonate-induced excitoxicity” value (striatal neurons) is given as “protected striatal neurons”.
